Experimental data from ChEMBL document CHEMBL1201862, “PubChem BioAssay data set” (2004).
Activity calls are given as the source filed them.

How the values were obtained:
[1] = biological target: T1, Corticotropin-releasing factor receptor 2/Corticotropin-releasing factor-binding protein (Homo sapiens, UniProt P24387+Q13324); assay: Dose Response confirmation of uHTS hits for small molecule antagonists of the CRF-binding protein and CRF-R2 receptor complex.; format: functional; conditions: read-out: IC50_Mean
T1 sequence (Q13324 whole entry): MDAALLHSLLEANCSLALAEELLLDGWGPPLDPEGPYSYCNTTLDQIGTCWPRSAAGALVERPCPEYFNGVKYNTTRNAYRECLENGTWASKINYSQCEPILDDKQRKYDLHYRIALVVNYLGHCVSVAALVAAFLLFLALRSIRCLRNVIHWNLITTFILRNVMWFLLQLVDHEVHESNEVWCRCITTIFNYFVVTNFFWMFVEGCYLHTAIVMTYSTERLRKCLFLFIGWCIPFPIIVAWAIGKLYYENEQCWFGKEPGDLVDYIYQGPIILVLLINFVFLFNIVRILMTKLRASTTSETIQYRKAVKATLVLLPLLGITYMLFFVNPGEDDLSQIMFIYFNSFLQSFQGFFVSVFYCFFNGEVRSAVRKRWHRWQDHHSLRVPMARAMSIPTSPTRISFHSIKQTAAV
T1 sequence (P24387 whole entry): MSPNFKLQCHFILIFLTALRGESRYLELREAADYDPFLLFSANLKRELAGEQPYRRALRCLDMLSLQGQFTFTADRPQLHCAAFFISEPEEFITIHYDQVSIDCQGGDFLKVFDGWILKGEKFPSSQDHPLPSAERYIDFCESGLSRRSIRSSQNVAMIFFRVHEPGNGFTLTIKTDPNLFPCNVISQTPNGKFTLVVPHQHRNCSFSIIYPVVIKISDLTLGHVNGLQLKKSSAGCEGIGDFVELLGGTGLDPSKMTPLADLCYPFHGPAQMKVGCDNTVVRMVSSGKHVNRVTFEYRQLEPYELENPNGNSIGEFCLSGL

[2] = biological target: T1, Corticotropin-releasing factor receptor 2/Corticotropin-releasing factor-binding protein; assay: activators of CRF receptor 2 with binding protein – uHTS hits, confirmation (AID 602473); format: functional; conditions: read-out: EC50_Mean
[3] = biological target: Apoptotic protease-activating factor 1 (Homo sapiens, UniProt O14727); format: functional
[4] = biological target: T2, Insulin-degrading enzyme (Homo sapiens, UniProt P14735); assay: Dose Response: Fluorescence polarization-based cell-based high throughput dose response assay for inhibitors of insulin-degrading enzyme (IDE). [Related pubchem assays: 434962 (Primary screen (IDE inhibitors in singlicate)), 449730 (Counterscreen (Cytotoxicity in triplicate)), 435028 (Confirmation (IDE inhibitors in triplicate)), 434984 (Summary …; format: functional
T2 sequence (P14735 whole entry): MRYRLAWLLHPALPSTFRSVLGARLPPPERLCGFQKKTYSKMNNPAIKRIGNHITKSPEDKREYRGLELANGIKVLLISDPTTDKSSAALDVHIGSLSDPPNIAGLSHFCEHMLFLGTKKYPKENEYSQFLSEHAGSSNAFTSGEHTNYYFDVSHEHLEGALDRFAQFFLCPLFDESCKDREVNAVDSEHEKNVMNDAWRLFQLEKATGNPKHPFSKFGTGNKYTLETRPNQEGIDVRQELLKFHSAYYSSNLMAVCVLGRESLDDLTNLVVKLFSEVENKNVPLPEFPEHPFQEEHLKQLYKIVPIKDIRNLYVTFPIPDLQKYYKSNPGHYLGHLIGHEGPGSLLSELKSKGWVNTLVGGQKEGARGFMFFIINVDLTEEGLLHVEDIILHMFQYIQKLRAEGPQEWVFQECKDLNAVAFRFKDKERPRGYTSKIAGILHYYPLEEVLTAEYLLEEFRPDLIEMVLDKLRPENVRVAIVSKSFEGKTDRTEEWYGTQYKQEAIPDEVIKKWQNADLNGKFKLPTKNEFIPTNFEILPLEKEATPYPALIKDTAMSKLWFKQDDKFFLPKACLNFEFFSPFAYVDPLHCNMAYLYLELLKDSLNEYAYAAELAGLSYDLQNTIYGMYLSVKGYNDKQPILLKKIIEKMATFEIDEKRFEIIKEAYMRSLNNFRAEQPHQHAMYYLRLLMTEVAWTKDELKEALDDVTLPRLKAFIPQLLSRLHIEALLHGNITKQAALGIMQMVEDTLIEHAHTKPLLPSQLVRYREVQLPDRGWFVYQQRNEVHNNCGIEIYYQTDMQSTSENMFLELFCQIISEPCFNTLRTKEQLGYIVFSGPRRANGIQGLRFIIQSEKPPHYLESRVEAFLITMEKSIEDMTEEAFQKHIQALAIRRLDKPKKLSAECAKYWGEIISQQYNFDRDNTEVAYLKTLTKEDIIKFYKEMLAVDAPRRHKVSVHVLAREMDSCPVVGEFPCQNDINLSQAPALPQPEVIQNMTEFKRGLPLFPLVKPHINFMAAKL

[5] = biological target: T3, Orexin receptor type 2 (Homo sapiens, UniProt O43614); assay: Counterscreen assay for antagonists of the orexin 1 receptor (OX1R; HCRTR1): Homogeneous Time Resolved Fluorescence (HTRF)-based cell-based dose response assay for antagonists of the orexin 2 receptor (OX2R; HCRTR2), run by assay provider.; format: functional
T3 sequence (O43614 whole entry): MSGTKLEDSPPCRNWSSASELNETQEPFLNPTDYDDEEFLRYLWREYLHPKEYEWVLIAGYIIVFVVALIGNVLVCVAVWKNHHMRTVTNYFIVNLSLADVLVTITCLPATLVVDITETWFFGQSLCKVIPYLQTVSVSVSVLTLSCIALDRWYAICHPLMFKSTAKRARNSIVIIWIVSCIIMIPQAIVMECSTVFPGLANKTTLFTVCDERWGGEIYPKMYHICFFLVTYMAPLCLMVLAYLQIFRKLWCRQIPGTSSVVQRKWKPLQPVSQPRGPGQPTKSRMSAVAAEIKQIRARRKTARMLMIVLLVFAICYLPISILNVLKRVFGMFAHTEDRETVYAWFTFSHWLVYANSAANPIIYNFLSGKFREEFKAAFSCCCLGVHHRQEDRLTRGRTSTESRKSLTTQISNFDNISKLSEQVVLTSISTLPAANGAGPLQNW

[6] = system: Vero; assay: Vero cell cytotoxicity, cytotoxicity control for flavivirus capping enzyme inhibitors (AID 588742); format: functional; conditions: Chlorocebus sabaeus
[7] = biological target: DNA dC->dU-editing enzyme APOBEC-3G (Homo sapiens, UniProt Q9HC16); assay: Dose Response confirmation of small molecule APOBEC3G DNA Deaminase Inhibitors via a fluorescence-based single-stranded DNA deaminase assay. [Related pubchem assays (depositor defined):AID493012, AID493028]; format: functional
[8] = biological target: Genome polyprotein (dengue virus type 2, UniProt P29990); assay: Dengue-2 NS5 methyltransferase inhibitors, primary screen, biochemical, confirmation dose response (AID 588689); format: functional
[9] = biological target: Glucose-6-phosphate 1-dehydrogenase (Homo sapiens, UniProt P11413); assay: human G6PD enzyme inhibitors, dose response, selectivity assay for P. falciparum G6PD inhibitor project, biochemical, fluorescence (AID 504792); format: functional
[10] = biological target: T4, Alkaline phosphatase, tissue-nonspecific isozyme (Homo sapiens, UniProt P05186); assay: human TNAP enzyme inhibitors, SAR follow-up, biochemical, luminescent, dose response (AID 1056)
T4 sequence (P05186 whole entry): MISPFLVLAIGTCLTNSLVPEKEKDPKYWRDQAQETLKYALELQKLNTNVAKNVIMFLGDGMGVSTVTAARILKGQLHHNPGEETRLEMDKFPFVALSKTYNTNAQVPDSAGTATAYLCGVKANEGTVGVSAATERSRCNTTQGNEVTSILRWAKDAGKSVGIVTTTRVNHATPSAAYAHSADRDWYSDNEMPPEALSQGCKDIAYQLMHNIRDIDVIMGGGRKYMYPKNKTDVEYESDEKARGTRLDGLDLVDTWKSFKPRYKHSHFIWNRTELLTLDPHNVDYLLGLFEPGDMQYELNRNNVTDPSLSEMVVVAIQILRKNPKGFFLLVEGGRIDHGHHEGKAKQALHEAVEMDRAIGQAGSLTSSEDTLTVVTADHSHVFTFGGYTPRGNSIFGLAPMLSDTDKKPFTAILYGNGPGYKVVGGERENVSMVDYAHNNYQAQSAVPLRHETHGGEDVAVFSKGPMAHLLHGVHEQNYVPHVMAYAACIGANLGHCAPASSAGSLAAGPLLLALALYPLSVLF

[11] = biological target: T5, Mannose-6-phosphate isomerase (Homo sapiens, UniProt P34949); assay: PMI enzyme inhibitors, confirmation, biochemical, fluorescence intensity (AID 1535)
T5 sequence (P34949 whole entry): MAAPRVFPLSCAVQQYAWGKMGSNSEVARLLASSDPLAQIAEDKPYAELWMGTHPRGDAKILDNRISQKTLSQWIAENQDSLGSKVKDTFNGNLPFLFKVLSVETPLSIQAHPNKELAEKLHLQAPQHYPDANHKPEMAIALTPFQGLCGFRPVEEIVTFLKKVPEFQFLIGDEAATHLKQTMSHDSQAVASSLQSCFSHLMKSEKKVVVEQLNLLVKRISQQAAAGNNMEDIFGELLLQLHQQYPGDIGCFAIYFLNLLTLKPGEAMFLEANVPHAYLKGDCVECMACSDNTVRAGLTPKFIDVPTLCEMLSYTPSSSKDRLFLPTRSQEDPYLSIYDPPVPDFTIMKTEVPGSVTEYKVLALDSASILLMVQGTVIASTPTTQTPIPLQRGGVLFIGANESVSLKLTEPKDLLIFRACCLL

[12] = Counterscreen for IDE inhibitors: Luminescence-based cell-based high throughput dose response assay to identify compounds that are cytotoxic to HEK cells. [Related pubchem assays: 434962 (Primary screen (IDE inhibitors in singlicate)), 449730 (Counterscreen (Cytotoxicity in triplicate)), 435028 (Confirmation (IDE inhibitors in triplicate)) …; format: functional; conditions: HEK293
[13] = biological target: DNA dC->dU-editing enzyme APOBEC-3A (Homo sapiens, UniProt P31941); assay: APOBEC3A DNA deaminase inhibitors, dose response, biochemical (AID 504722); format: functional
[14] = biological target: T3, Orexin receptor type 2; assay: Counterscreen assay for antagonists of the orexin 1 receptor (OX1R; HCRTR1): Fluorescence-based cell-based dose response assay for antagonists of the orexin 2 receptor (OX2R; HCRTR2), run by assay provider.; format: functional
[15] = biological target: T6, Phosphomannomutase 2 (Homo sapiens, UniProt O15305); assay: Counter screen SAR assay for PMM2 inhibitors via a fluorescence intensity assay. [Related pubchem assays (depositor defined):AID1545, AID1574]
T6 sequence (O15305 whole entry): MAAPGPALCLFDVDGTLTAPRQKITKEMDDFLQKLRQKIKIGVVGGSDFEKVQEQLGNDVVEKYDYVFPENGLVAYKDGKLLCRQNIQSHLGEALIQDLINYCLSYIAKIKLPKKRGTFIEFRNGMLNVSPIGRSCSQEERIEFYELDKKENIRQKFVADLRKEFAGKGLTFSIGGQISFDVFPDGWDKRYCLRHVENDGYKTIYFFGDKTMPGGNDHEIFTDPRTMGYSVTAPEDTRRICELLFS

[16] = biological target: Endoplasmic reticulum aminopeptidase 1 (Homo sapiens, UniProt Q9NZ08); assay: ERAP1 aminopeptidase inhibitors, dose response, biochemical, cherry-pick, set 2, plate reader (AID 743314)
[17] = biological target: Phosphoethanolamine/phosphocholine phosphatase (Homo sapiens, UniProt Q8TCT1); assay: SAR assay for compounds that inhibit PHOSPHO1. [Related pubchem assays (depositor defined):AID1545, AID1565, AID1574]
[18] = biological target: FAD-linked sulfhydryl oxidase ALR (Homo sapiens, UniProt P55789); assay: inhibitors of human ALR sulfhydryl oxidase, dose response, biochemical, H2O2 detection, luminescence, cherry-pick (AID 493248)
[19] = biological target: Large T antigen (Simian virus 40, UniProt P03070); format: functional, Betapolyomavirus macacae;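 further: Confirmatory-stage PubChem screen for compounds that inhibit SV40 T antigen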
Large T antigen, sequence (P03070 whole entry): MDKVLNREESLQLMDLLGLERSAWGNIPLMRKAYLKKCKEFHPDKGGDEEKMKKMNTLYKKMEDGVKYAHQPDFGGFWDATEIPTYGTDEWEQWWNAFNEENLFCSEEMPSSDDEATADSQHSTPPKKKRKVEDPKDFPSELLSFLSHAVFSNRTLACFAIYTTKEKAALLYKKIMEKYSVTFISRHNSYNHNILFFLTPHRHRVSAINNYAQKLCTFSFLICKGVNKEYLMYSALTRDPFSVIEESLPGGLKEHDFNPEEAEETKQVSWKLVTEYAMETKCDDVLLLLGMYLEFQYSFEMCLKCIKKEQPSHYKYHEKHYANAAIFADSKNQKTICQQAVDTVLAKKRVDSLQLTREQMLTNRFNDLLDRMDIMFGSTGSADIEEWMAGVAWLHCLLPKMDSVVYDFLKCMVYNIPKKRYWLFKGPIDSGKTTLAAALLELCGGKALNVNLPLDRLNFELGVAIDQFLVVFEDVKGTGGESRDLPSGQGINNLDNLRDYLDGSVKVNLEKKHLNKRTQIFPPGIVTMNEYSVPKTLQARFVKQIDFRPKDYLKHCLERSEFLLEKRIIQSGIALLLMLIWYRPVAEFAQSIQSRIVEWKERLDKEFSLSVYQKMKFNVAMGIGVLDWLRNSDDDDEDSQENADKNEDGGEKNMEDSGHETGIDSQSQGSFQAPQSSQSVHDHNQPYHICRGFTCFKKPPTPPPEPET

Endoplasmic reticulum aminopeptidase 1, sequence (Q9NZ08 whole entry): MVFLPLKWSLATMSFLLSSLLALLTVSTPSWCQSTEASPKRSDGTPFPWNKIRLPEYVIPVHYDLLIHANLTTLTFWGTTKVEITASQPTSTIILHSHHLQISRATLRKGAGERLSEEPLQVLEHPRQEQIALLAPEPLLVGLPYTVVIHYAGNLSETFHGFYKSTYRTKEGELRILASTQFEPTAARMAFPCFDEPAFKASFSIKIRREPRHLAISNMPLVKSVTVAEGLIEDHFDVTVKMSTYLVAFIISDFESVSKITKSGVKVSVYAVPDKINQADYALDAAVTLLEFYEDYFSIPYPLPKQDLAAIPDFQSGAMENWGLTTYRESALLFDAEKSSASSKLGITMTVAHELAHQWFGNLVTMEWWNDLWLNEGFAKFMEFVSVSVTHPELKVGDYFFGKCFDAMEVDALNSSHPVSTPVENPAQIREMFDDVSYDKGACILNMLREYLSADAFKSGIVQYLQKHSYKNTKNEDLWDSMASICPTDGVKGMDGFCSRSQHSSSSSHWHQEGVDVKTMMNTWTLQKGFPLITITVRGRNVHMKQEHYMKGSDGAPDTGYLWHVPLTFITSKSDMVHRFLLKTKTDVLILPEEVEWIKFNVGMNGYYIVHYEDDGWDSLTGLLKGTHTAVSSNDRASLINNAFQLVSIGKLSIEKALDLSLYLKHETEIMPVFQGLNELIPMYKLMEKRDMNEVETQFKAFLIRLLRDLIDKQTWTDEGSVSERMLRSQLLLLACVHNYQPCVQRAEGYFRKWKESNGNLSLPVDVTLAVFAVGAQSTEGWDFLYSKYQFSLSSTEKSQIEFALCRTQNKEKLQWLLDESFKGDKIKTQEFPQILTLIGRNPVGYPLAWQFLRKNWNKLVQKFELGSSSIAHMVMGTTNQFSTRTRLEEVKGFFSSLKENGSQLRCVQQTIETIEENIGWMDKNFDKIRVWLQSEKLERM
Apoptotic protease-activating factor 1, sequence (O14727 whole entry): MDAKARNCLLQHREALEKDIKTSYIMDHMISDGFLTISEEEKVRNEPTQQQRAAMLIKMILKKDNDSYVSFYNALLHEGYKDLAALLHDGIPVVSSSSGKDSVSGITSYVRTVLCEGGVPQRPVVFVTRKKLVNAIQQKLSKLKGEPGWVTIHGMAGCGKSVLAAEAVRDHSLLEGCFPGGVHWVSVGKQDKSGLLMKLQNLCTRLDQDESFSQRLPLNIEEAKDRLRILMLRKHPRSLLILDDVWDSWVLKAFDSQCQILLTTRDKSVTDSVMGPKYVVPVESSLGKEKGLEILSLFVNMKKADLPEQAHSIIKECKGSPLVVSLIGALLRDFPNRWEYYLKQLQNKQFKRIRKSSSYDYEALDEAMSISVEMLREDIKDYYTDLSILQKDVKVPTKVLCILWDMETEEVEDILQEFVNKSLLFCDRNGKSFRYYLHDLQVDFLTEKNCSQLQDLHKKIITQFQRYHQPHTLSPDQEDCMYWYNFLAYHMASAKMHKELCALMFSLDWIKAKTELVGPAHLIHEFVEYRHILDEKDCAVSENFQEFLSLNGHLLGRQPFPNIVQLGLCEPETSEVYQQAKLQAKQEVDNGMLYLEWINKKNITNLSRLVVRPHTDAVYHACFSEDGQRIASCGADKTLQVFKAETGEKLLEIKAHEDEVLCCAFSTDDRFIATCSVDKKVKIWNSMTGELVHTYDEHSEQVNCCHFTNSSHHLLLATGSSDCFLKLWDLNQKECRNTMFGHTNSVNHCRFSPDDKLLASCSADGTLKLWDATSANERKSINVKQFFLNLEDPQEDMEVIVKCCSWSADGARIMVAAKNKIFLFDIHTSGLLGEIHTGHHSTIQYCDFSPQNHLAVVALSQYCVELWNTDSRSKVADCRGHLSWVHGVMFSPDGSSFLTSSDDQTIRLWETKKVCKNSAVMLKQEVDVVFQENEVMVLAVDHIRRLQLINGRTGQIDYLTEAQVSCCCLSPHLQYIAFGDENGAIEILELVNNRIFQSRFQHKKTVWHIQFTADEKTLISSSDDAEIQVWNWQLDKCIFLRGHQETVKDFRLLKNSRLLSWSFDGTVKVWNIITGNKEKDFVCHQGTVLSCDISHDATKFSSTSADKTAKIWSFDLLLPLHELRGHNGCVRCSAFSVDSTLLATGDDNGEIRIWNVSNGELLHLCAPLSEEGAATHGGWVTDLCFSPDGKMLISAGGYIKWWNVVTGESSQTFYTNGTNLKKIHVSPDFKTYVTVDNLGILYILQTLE
DNA dC->dU-editing enzyme APOBEC-3A, sequence (P31941 whole entry): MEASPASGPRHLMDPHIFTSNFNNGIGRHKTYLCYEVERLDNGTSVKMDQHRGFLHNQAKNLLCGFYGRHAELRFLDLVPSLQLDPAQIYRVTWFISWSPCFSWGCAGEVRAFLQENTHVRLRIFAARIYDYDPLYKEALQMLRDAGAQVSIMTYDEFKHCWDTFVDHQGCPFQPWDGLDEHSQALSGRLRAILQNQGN
Phosphoethanolamine/phosphocholine phosphatase, sequence (Q8TCT1 whole entry): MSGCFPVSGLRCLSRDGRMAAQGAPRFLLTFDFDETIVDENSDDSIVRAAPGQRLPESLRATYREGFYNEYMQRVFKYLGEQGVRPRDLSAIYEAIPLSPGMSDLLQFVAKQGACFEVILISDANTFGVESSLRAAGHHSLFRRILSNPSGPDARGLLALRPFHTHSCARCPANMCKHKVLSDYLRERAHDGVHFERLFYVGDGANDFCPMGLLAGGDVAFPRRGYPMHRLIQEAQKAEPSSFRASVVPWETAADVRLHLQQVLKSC
DNA dC->dU-editing enzyme APOBEC-3G, sequence (Q9HC16 whole entry): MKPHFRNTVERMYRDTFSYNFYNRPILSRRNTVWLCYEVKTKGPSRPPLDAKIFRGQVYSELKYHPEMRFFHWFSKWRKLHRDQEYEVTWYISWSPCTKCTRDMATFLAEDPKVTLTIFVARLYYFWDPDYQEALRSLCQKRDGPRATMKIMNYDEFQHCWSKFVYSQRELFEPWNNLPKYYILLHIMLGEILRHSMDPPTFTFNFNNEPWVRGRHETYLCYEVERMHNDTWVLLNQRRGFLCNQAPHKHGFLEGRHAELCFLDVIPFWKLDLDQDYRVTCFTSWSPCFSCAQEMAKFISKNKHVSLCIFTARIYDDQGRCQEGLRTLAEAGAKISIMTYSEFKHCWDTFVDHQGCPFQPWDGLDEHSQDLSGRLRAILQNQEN
Genome polyprotein, sequence (P29990 2492-3391 limits assumed): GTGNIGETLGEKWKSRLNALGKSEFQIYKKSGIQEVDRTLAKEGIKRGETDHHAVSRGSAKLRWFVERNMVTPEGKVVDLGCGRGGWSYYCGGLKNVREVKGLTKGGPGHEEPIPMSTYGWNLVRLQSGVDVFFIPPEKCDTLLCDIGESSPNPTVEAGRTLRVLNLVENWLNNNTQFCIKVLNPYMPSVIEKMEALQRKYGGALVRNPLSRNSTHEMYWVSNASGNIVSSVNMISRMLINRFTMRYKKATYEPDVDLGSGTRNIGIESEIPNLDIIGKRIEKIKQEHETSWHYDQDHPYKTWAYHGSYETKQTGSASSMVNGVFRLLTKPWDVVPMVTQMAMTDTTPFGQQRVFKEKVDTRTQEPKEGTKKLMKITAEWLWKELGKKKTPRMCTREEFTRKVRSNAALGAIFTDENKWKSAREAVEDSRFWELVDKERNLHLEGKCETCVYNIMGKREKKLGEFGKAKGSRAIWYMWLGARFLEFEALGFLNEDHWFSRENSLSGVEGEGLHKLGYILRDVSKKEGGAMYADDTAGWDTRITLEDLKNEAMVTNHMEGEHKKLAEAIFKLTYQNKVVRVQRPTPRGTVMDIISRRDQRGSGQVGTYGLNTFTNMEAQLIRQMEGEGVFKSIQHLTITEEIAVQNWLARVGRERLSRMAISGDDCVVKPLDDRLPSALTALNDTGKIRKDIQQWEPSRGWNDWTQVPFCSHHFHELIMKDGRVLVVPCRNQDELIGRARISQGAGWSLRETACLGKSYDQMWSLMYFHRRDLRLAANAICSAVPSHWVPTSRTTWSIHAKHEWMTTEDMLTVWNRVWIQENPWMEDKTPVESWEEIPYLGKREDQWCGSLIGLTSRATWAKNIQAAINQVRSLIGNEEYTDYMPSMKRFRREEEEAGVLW
FAD-linked sulfhydryl oxidase ALR, sequence (P55789 whole entry): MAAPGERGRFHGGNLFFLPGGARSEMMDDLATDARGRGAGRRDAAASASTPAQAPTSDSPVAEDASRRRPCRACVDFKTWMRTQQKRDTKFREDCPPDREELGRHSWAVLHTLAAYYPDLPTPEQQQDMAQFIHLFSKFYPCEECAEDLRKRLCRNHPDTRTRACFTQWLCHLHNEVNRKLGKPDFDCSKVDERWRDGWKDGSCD

Compound | IC50 [1] | EC50 [2] | IC50 [3] | IC50 [4] | IC50 [5] | CC50 [6] | IC50 [7] | IC50 [8] | IC50 [9] | IC50 [10] | IC50 [11] | IC50 [12] | IC50 [13] | IC50 [14] | IC50 [15] | AC50 [16] | IC50 [17] | AC50 [18] | IC50 [19]
CCCCCn1c(=O)c(C(=O)Nc2c(C)n(C)n(-c3ccccc3)c2=O)c(O)c2ccccc21 | > 47.1 µM (inactive) | > 53 µM (inactive) | > 100 µM (inactive) |  |  |  |  |  |  |  |  |  |  |  |  |  |  |  | 
O=C(O)c1ccccc1NS(=O)(=O)c1cccc(-n2sc3ccccc3c2=O)c1 |  |  |  | 2.1 µM (active) | 3.45 µM (active) | > 40 µM (active) | 9.14 µM (active) | 46.4 µM (active) | 17.6 µM (active) | > 100 µM (inactive) | 0.707 µM (active) | 34.8 µM (not active) | > 100 µM (inactive) | 6.8 µM (active) | 5.15 µM (active) | 0.73 µM (active) | 0.808 µM (active) | 0.243 µM (active) | 13.2 µM (active)
